Experimental data taken from patent publication US20050004134A1, “Thiazole derivative and pharmaceutical use thereof” (priority 2001, published 2005).

CC(C)NC(=O)c1nc(-c2ccccc2F)c(-c2ccc(=O)n(C(C)C)n2)s1 [Example 184, 4-(2-fluorophenyl)-N-isopropyl-5-(1-isopropyl-6-oxo-1,6-dihydro-3-pyridazinyl)-1,3-thiazole-2-carboxamide]
melting point: 129 to 130.5 °C

CC(C)NC(=O)c1nc(-c2cccc(F)c2)c(-c2ccc(=O)n(C(C)C)n2)s1 [Example 185, 4-(3-fluorophenyl)-N-isopropyl-5-(1-isopropyl-6-oxo-1,6-dihydro-3-pyridazinyl)-1,3-thiazole-2-carboxamide]
melting point: 103.5 to 105.5 °C

CC(C)NC(=O)c1nc(-c2ccc(F)cc2)c(-c2ccc(=O)n(C(C)C)n2)s1 [Example 186, 4-(4-fluorophenyl)-N-isopropyl-5-(1-isopropyl-6-oxo-1,6-dihydro-3-pyridazinyl)-1,3-thiazole-2-carboxamide]
melting point: 122 to 123.5 °C

CC(C)NC(=O)c1nc(-c2cccc(Cl)c2)c(-c2ccc(=O)n(C(C)C)n2)s1 [Example 187, 4-(3-chlorophenyl)-N-isopropyl-5-(1-isopropyl-6-oxo-1,6-dihydro-3-pyridazinyl)-1,3-thiazole-2-carboxamide]
melting point: 105 to 106 °C

O=C(NC1CC1)c1nc(-c2ccccc2)c(-c2ccc(=O)[nH]n2)s1 [Example 188, N-cyclopropyl-5-(6-oxo-1,6-dihydro-3-pyridazinyl)-4-phenyl-1,3-thiazole-2-carboxamide]
melting point: > 250 °C

Cn1nc(-c2sc(C(=O)NC3CC3)nc2-c2ccccc2)ccc1=O [Example 189, N-cyclopropyl-5-(1-methyl-6-oxo-1,6-dihydro-3-pyridazinyl)-4-phenyl-1,3-thiazole-2-carboxamide]
melting point: 163 to 164 °C

CCn1nc(-c2sc(C(=O)NC3CC3)nc2-c2ccccc2)ccc1=O [Example 190, N-cyclopropyl-5-(1-ethyl-6-oxo-1,6-dihydro-3-pyridazinyl)-4-phenyl-1,3-thiazole-2-carboxamide]
melting point: 144 to 145 °C

CCCn1nc(-c2sc(C(=O)NC3CC3)nc2-c2ccccc2)ccc1=O [Example 191, N-cyclopropyl-5-(6-oxo-1-propyl-1,6-dihydro-3-pyridazinyl)-4-phenyl-1,3-thiazole-2-carboxamide]
melting point: 146 to 147 °C

CC(C)n1nc(-c2sc(C(=O)NC3CC3)nc2-c2ccccc2)ccc1=O [Example 192, N-cyclopropyl-5-(1-isopropyl-6-oxo-1,6-dihydro-3-pyridazinyl)-4-phenyl-1,3-thiazole-2-carboxamide]
melting point: 127 to 128 °C

C=CCn1nc([SH]2C=C(c3ccccc3)N=C2C(=O)NC2CC2)ccc1=O (stereo not drawn) [Example 193, S-(1-allyl-6-oxo-1,6-dihydro-3-pyridazinyl)-N-cyclopropyl-4-phenyl-1,3-thiazole-2-carboxamide]
melting point: 167.5 to 168.5 °C

O=C(NC1CC1)c1nc(-c2ccccc2)c(-c2ccc(=O)n(Cc3ccccc3)n2)s1 [Example 194, 5-(1-benzyl-6-oxo-1,6-dihydro-3-pyridazinyl)-N-cyclopropyl-4-phenyl-1,3-thiazole-2-carboxamide]
melting point: 151 to 152.5 °C

CC(C)n1nc(-c2sc(C(=O)NC3CC3)nc2-c2ccccc2F)ccc1=O [Example 196, N-cyclopropyl-4-(2-fluorophenyl)-5-(1-isopropyl-6-oxo-1,6-dihydro-3-pyridazinyl)-1,3-thiazole-2-carboxamide]
melting point: 133.5 to 135 °C

CC(C)n1nc(-c2sc(C(=O)NC3CC3)nc2-c2cccc(F)c2)ccc1=O [Example 197, N-cyclopropyl-4-(3-fluorophenyl)-5-(1-isopropyl-6-oxo-1,6-dihydro-3-pyridazinyl)-1,3-thiazole-2-carboxamide]
melting point: 145.5 to 147 °C

CC(C)n1nc(-c2sc(C(=O)NC3CC3)nc2-c2ccc(F)cc2)ccc1=O [Example 198, N-cyclopropyl-4-(4-fluorophenyl)-5-(1-isopropyl-6-oxo-1,6-dihydro-3-pyridazinyl)-1,3-thiazole-2-carboxamide]
melting point: 157 to 158 °C

CC(C)n1nc(-c2sc(C(=O)NC3CC3)nc2-c2cccc(Cl)c2)ccc1=O [Example 199, 4-(3-chlorophenyl)-N-cyclopropyl-5-(1-isopropyl-6-oxo-1,6-dihydro-3-pyridazinyl)-1,3-thiazole-2-carboxamide]
melting point: 118.5 to 119.5 °C

O=C(NCc1ccccn1)c1nc(-c2ccccc2)c(-c2ccc(=O)[nH]n2)s1 [Example 200, 5-(6-oxo-1,6-dihydro-3-pyridazinyl)-4-phenyl-N-(2-pyridinylmethyl)-1,3-thiazole-2-carboxamide]
melting point: 221 to 222.5 °C

Cn1nc(-c2sc(C(=O)NCc3ccccn3)nc2-c2ccccc2)ccc1=O [Example 201, 5-(1-methyl-6-oxo-1,6-dihydro-3-pyridazinyl)-4-phenyl-N-(2-pyridinylmethyl)-1,3-thiazole-2-carboxamide]
melting point: 189 to 190.5 °C

CCn1nc(-c2sc(C(=O)NCc3ccccn3)nc2-c2ccccc2)ccc1=O [Example 202, 5-(1-Ethyl-6-oxo-1,6-dihydro-3-pyridazinyl)-4-phenyl-N-(2-pyridinylmethyl)-1,3-thiazole-2-carboxamide]
melting point: 169 to 170.5 °C

CCCn1nc(-c2sc(C(=O)NCc3ccccn3)nc2-c2ccccc2)ccc1=O [Example 203, 5-(6-Oxo-1-propyl-1,6-dihydro-3-pyridazinyl)-4-phenyl-N-(2-pyridinylmethyl)-1,3-thiazole-2-carboxamide]
melting point: 134 to 135.5 °C

C=CCn1nc(-c2sc(C(=O)NCc3ccccn3)nc2-c2ccccc2)ccc1=O [Example 204, 5-(1-Allyl-6-oxo-1,6-dihydro-3-pyridazinyl)-4-phenyl-N-(2-pyridinylmethyl)-1,3-thiazole-2-carboxamide]
melting point: 117 to 118 °C

O=C(NCc1ccccn1)c1nc(-c2ccccc2)c(-c2ccc(=O)n(Cc3ccccc3)n2)s1 [Example 205, 5-(1-Benzyl-6-oxo-1,6-dihydro-3-pyridazinyl)-4-phenyl-N-(2-pyridinylmethyl)-1,3-thiazole-2-carboxamide]
melting point: 172.5 to 173.5 °C

COCCn1nc(-c2sc(C(=O)NCc3ccccn3)nc2-c2ccccc2)ccc1=O [Example 206, 5-[1-(2-Methoxyethyl)-6-oxo-1,6-dihydro-3-pyridazinyl]-4-phenyl-N-(2-pyridinylmethyl)-1,3-thiazole-2-carboxamide]
melting point: 168 to 169.5 °C

CC(C)n1nc(-c2sc(C(=O)NCc3ccccn3)nc2-c2ccccc2F)ccc1=O [Example 207, 4-(2-Fluorophenyl)-5-(1-isopropyl-6-oxo-1,6-dihydro-3-pyridazinyl)-N-(2-pyridinylmethyl)-1,3-thiazole-2-carboxamide]
melting point: 190 to 191 °C

CC(C)n1nc(-c2sc(C(=O)NCc3ccccn3)nc2-c2cccc(F)c2)ccc1=O [Example 208, 4-(3-Fluorophenyl)-5-(1-isopropyl-6-oxo-1,6-dihydro-3-pyridazinyl)-N-(2-pyridinylmethyl)-1,3-thiazole-2-carboxamide]
melting point: 188 to 189.5 °C

CC(C)n1nc(-c2sc(C(=O)NCc3ccccn3)nc2-c2cccc(Cl)c2)ccc1=O [Example 209, 4-(3-Chlorophenyl)-5-(1-isopropyl-6-oxo-1,6-dihydro-3-pyridazinyl)-N-(2-pyridinylmethyl)-1,3-thiazole-2-carboxamide]
melting point: 168 to 169.5 °C

CC(C)n1nc(-c2sc(C(=O)NCc3ccccn3)nc2-c2ccccc2)ccc1=O [Example 210, 5-(1-isopropyl-6-oxo-1,6-dihydro-3-pyridazinyl)-4-phenyl-N-(2-pyridinylmethyl)-1,3-thiazole-2-carboxamide]
melting point: 176.5 to 177.5 °C

CC(C)n1nc(-c2sc(C(=O)NCc3ccccn3)nc2-c2ccc(F)cc2)ccc1=O [Example 211, 4-(4-Fluorophenyl)-5-(1-isopropyl-6-oxo-1,6-dihydro-3-pyridazinyl)-N-(2-pyridinylmethyl)-1,3-thiazole-2-carboxamide]
melting point: 203.5 to 205 °C

CNC(=O)c1nc(-c2ccccc2)c(-c2ccc(=O)n(C(C)C)n2)s1 [Example 212, 5-(1-isopropyl-6-oxo-1,6-dihydro-3-pyridazinyl)-N-methyl-4-phenyl-1,3-thiazole-2-carboxamide]
melting point: 165 to 167.5 °C

CC(C)n1nc(-c2sc(C(=O)N(C)C)nc2-c2ccccc2)ccc1=O [Example 213, 5-(1-isopropyl-6-oxo-1,6-dihydro-3-pyridazinyl)-N,N-dimethyl-4-phenyl-1,3-thiazole-2-carboxamide]
melting point: 141 to 144 °C

CCCCNC(=O)c1nc(-c2ccccc2)c(-c2ccc(=O)n(C(C)C)n2)s1 [Example 215, N-butyl-5-(1-isopropyl-6-oxo-1,6-dihydro-3-pyridazinyl)-4-phenyl-1,3-thiazole-2-carboxamide]
melting point: 147.5 to 148.5 °C

CC(=O)NCCNC(=O)c1nc(-c2ccccc2)c(-c2ccc(=O)n(C(C)C)n2)s1 [Example 217, N-[2-(Acetylamino)ethyl]-5-(1-isopropyl-6-oxo-1,6-dihydro-3-pyridazinyl)-4-phenyl-1,3-thiazole-2-carboxamide]
melting point: 170 to 171.5 °C

CC(C)n1nc(-c2sc(C(=O)N3CCCCC3)nc2-c2ccccc2)ccc1=O [Example 218, 2-Isopropyl-6-[4-phenyl-2-(1-piperidinylcarbonyl)-1,3-thiazol-5-yl]-3(2H)-pyridazinone]
melting point: 111 to 112 °C

CC(=O)N1CCN(C(=O)c2nc(-c3ccccc3)c(-c3ccc(=O)n(C(C)C)n3)s2)CC1 [Example 219, 6-{2-[(4-Acetyl-1-piperazinyl)carbonyl]-4-phenyl-1,3-thiazol-5-yl}-2-isopropyl-3(2H)-pyridazinone]
melting point: 78 to 82 °C

CC(C)n1nc(-c2sc(C(=O)NCc3ccccc3)nc2-c2ccccc2)ccc1=O [Example 220, N-Benzyl-5-(1-isopropyl-6-oxo-1,6-dihydro-3-pyridazinyl)-4-phenyl-1,3-thiazole-2-carboxamide]
melting point: 186 to 187 °C

Cc1cnc(CNC(=O)c2nc(-c3ccc(F)cc3)c(-c3ccc(=O)n(C(C)C)n3)s2)cn1 [Example 221, 4-(4-Fluorophenyl)-5-(1-isopropyl-6-oxo-1,6-dihydro-3-pyridazinyl)-N-[(5-methyl-2-pyrazinyl)methyl]-1,3-thiazole-2-carboxamide]
melting point: 187.5 to 188.5 °C
